Columns and labels:
Assay type in all cases: cell-based
[1] = molecular target: T1, LXRα ligand-binding domain (LBD) (Homo sapiens, UniProt Q13133); test: LXR Gal4 reporter transient transfection assay (M2H), Gal4α LBD; conditions: HEK293 cells; read-out: M2H Gal4α LBD activity range (EC50)
T1 construct: expressed in transfected cells; host or cells: HEK293
T1 sequence (Q13133 155-447): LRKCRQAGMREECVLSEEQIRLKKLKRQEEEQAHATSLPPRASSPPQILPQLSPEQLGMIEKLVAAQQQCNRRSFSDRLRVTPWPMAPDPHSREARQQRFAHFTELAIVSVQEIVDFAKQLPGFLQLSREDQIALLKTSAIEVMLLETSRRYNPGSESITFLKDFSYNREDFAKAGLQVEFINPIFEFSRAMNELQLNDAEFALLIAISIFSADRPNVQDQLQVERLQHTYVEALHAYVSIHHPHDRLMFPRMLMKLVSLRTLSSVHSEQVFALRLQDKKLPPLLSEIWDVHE
Summary of the method: (§1)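 Mammalian two-hybrid in HEK293 cells transiently transfected with LXRα/β full-length or LBD fused to NFkB activation domain, plus GAL4-DBD fusions of SRC1 coactivator or NCoR corepressor domains and a GAL4-responsive firefly luciferase reporter. Compounds added 4 h post-transfection (vehicle ≤0.2% DMSO), 16 h incubation; firefly luciferase normalized to Renilla.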

[2] = molecular target: T2, LXRβ ligand-binding domain (LBD) (Homo sapiens, UniProt P55055, DUP175-175); test: LXR Gal4 reporter transient transfection assay (M2H), Gal4β LBD; conditions: HEK293 cells; read-out: M2H Gal4β LBD activity range (EC50)
T2 construct: LXRβ (amino acids 156-461); expressed in transfected cells; host or cells: HEK293
T2 sequence (P55055 with tags, fused parts or gaps DUP175-175): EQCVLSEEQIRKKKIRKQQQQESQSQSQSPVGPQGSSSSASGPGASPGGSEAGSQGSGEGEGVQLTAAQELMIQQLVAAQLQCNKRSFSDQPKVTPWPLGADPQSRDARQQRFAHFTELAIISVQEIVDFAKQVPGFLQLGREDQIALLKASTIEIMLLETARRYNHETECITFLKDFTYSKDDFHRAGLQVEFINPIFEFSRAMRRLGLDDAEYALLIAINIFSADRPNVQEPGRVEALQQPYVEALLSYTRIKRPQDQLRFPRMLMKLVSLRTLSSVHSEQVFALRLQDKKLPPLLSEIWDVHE
Summary of the method: as §1

LXRβ full length (FL) = molecular target: T3, LXRβ full length (FL) (Homo sapiens, UniProt P55055, DUP175-175); test: LXR Gal4 reporter transient transfection assay (M2H), Gal4β FL; conditions: HEK293 cells; read-out: M2H Gal4β FL activity range (EC50)
T3 construct: the full length (FL) proteins of LXRα (amino acids 1-447); NP005684; NP009052; expressed in transfected cells; host or cells: HEK293
T3 sequence (P55055 with tags, fused parts or gaps DUP175-175): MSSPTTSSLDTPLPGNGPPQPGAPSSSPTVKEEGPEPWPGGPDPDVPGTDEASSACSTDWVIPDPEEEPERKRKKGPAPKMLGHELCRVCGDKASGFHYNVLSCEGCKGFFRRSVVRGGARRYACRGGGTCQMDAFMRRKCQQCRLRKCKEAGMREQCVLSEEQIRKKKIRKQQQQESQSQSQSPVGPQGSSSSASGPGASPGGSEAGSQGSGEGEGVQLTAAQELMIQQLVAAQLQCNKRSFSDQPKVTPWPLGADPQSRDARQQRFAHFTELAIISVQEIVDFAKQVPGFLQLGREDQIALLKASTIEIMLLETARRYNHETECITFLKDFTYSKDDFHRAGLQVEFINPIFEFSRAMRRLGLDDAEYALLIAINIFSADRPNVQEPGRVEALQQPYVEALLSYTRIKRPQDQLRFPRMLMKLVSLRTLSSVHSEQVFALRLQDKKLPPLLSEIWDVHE
Summary of the method: as §1

| SMILES | EC50 [1] | EC50 [2] | EC50 (LXRβ full length (FL)) |
| --- | --- | --- | --- |
| Cc1cc(C)c(S(=O)(=O)N(Cc2ccc(-c3cccc(CC(=O)O)c3)cc2)Cc2ccc(C(F)(F)F)o2)c(C)c1 [Example 2, 2-(4′-(((2,4,6-Trimethyl-N-((5-(trifluoromethyl)furan-2-yl)methyl)phenyl)sulfonamido)methyl)-[1,1′-biphenyl]-3-yl)acetic acid] | 100 to 1000 nM | < 100 nM | < 100 nM |
| Cc1cc(C)c(S(=O)(=O)N(Cc2ccc(-c3cccc(CC(=O)O)c3)cc2)C(C)c2ccc(C(F)(F)F)o2)c(C)c1 (centres unmarked) [2/2] | < 100 nM | < 100 nM | < 100 nM |
| COc1cc(-c2cccc(C(C)(C)C(=O)O)c2)ccc1CN(Cc1ccc(C(F)(F)F)o1)S(=O)(=O)c1c(C)cc(C)cc1C [10/4] | < 100 nM | < 100 nM | < 100 nM |
| Cc1cc(C)c(S(=O)(=O)N(Cc2ccc(-c3cccc(C(C)(C)C(=O)O)c3)cc2)Cc2ccc(C(F)(F)F)o2)c(C)c1 [7/5] | < 100 nM | < 100 nM | < 100 nM |
| Cc1ccc2ccccc2c1S(=O)(=O)N(Cc1ccc(-c2cccc(S(=O)(=O)CC(=O)O)c2)cc1)Cc1cccc(C(F)(F)F)c1 [11/19] | – | – | 100 to 1000 nM |
| Cc1cc(C)c(S(=O)(=O)N(Cc2ccc(C(F)(F)F)o2)Cc2ccc(-c3cccc(C(C)(C)C(=O)O)c3)cc2Cl)c(C)c1 [10/5] | < 100 nM | < 100 nM | < 100 nM |
| Cc1cc(C)c(S(=O)(=O)N(Cc2ccc(-c3cccc(S(=O)(=O)C(C)(C)C(=O)O)c3)cc2)Cc2ccc(C(F)(F)F)o2)c(C)c1 [5/2] | 100 to 1000 nM | 100 to 1000 nM | 100 to 1000 nM |
| Cc1ccc2ccccc2c1S(=O)(=O)N(Cc1ccc(-c2cccc(C(C)(C)C(=O)O)c2)cc1)Cc1ccc(C(F)(F)F)o1 [Example 24, 2-Methyl-2-(4′-(((2-methyl-N-((5-(trifluoromethyl)furan-2-yl)methyl)naphthalene)-1-sulfonamido)methyl)-[1,1′-biphenyl]-3-yl)propanoic acid] | < 100 nM | < 100 nM | < 100 nM |
| Cc1cc(C)c(S(=O)(=O)N(Cc2ccc(-c3cc(F)c(CO)c(S(C)(=O)=O)c3)cc2)Cc2ccc(C(F)(F)F)o2)c(C)c1 [Example C3/2] | < 100 nM | < 100 nM | < 100 nM |
| Cc1cc(C)c(S(=O)(=O)N(Cc2ccc(-c3cccc(S(=O)(=O)CC(=O)O)c3)cc2)Cc2ccc(C(F)(F)F)o2)c(C)c1 [Example 5, 2-((4′-(((2,4,6-Trimethyl-N-((5-(trifluoromethyl)furan-2-yl)methyl)phenyl)sulfonamido)methyl)-[1,1′-biphenyl]-3-yl)sulfonyl)acetic acid] | – | – | 100 to 1000 nM |

Reference: patent US20200115357A1, “LIVER X RECEPTORS (LXR) MODULATORS” (Phenex-FXR GmbH, priority 2017, published 2020)
